# Assay results from patent publication US9428504B2, “7-hydroxy-spiropipiperidine indolinyl antagonists of P2Y1 receptor” (BRISTOL-MYERS SQUIBB COMPANY, priority 2012, dated 2016).
# Counter-ions that a name gives are not always drawn.
# Assays:
# [1] = biological target: cloned human P2Y1 receptors (Homo sapiens (Human), UniProt P47900); assay: Binding Assay B: Scintillation Proximity Assay (SPA) for P2Y1 binding; conditions: SPA, [33P] 2MeS-ADP displacement; read-out: P2Y1 Ki (nM) using binding assay B
# Procedure: A SPA membrane binding assay was used to identify inhibitors of [^33P] […] Binding reactions were performed in 384-well OptiPlates (PerkinElmer Life Sciences, Cat #6007299) in a volume of 50 μL containing ˜15 fmol of P2Y1 receptor (1.7 μg of total protein), 0.3 nM [^33P] […] Reactions were allowed to proceed to completion at room temperature for 1 hour followed by centrifugation of the plate for 5 min. About 40 μL of the aqueous solution was aspirated. Plates were sealed and the [^33P]
# [2] = test system: human platelet rich plasma (PRP); assay: ADP induced platelet aggregation assay; conditions: Homo sapiens, Platelet, read-out: PA IC50 (μM) @ 10 μM ADP, platelet aggregation induced by 10 μM ADP, human PRP
# Chain of cloned human P2Y1 receptors (P47900 whole entry): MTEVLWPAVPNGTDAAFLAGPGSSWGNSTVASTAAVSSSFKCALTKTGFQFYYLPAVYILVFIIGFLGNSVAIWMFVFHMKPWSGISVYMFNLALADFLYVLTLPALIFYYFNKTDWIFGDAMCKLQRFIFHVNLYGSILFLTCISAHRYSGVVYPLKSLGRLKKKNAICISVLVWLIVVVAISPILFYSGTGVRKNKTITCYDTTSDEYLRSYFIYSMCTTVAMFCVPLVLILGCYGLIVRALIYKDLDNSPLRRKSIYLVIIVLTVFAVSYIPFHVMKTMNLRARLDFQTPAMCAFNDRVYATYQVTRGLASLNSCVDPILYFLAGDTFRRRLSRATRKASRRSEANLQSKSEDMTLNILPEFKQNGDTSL
SMILES,Ki [1] [nM],IC50 [2] [µM]
"CC(C)(C)CN1CCC2(CC1)CN(c1ccccc1NC(=O)NC1CCC(C(C)(C)C)CC1)c1c(O)ccc(C(F)(F)F)c12 (stereo not shown) [Example 27, 1-(4-tert-Butylcyclohexyl)-3-(2-(7-hydroxy-1′-neopentyl-4-(trifluoromethyl)spiro[indoline-3,4′-piperidine]-1-yl)phenyl)urea]",9.6,0.7
"CC(C)c1nc(NC(=O)Nc2ccccc2N2CC3(CCN(CC(C)(C)C)CC3)c3c(C(F)(F)F)ccc(O)c32)cs1 [Example 28, 1-(2-(7-Hydroxy-1′-neopentyl-4-(trifluoromethyl)spiro[indoline-3,4′-piperidine]-1-yl)phenyl)-3-(2-isopropylthiazol-4-yl)urea]",6.6,0.8
"CC(C)(C)CN1CCC2(CC1)CN(c1ccccc1NC(=O)Nc1nccs1)c1c(O)ccc(C(F)(F)F)c12 [Example 29, 1-(2-(7-Hydroxy-1′-neopentyl-4-(trifluoromethyl)spiro[indoline-3,4′-piperidine]-1-yl)phenyl)-3-(thiazol-2-yl)urea]",6.4,0.4
"CC(C)CN1CCC2(CC1)CN(c1ccccc1NC(=O)Nc1nc3ccc(Cl)cc3s1)c1c(O)ccc(C(F)(F)F)c12 [Example 30, 1-(6-Chlorobenzo[d]thiazol-2-yl)-3-(2-(7-hydroxy-1′-isobutyl-4-(trifluoromethyl)spiro[indoline-3,4′-piperidine]-1-yl)phenyl)urea]",14.5,0.1
"CC(C)CN1CCC2(CC1)CN(c1ccccc1NC(=O)Nc1nc3ccc(F)cc3s1)c1c(O)ccc(C(F)(F)F)c12 [Example 31, 1-(6-Fluorobenzo[d]thiazol-2-yl)-3-(2-(7-hydroxy-1′-isobutyl-4-(trifluoromethyl)spiro[indoline-3,4′-piperidine]-1-yl)phenyl)urea]",16.4,0.1
"CC(C)(C)CN1CCC2(CC1)CN(c1ccccc1NC(=O)Nc1nc3ccc(F)cc3s1)c1c(O)ccc(F)c12 [Example 32, 1-(2-(4-Fluoro-7-hydroxy-1′-neopentylspiro[indoline-3,4′-piperidine]-1-yl)phenyl)-3-(6-fluorobenzo[d]thiazol-2-yl)urea]",7.4,0.3
"COc1ccc2nc(NC(=O)Nc3ccccc3N3CC4(CCN(CC(C)(C)C)CC4)c4c(F)ccc(O)c43)sc2c1 [Example 36, 1-(2-(4-Fluoro-7-hydroxy-1′-neopentylspiro[indoline-3,4′-piperidine]-1-yl)phenyl)-3-(6-methoxybenzo[d]thiazol-2-yl)urea]",7.9,0.9
"CC(C)(C)CN1CCC2(CC1)CN(c1ccccc1NC(=O)Nc1ccc(C(F)(F)F)cc1)c1c(O)ccc(F)c12 [Example 37, 1-(2-(4-Fluoro-7-hydroxy-1′-neopentylspiro[indoline-3,4′-piperidine]-1-yl)phenyl)-3-(4-(trifluoromethyl)phenyl)urea]",7.2,1
"CC(C)(C)CN1CCC2(CC1)CN(c1ccccc1NC(=O)Nc1nc3ccc(Cl)cc3s1)c1c(O)ccc(Cl)c12 [Example 38, 1-(2-(4-Chloro-7-hydroxy-1′-neopentylspiro[indoline-3,4′-piperidine]-1-yl)phenyl)-3-(6-chlorobenzo[d]thiazol-2-yl)urea]",10,0.4
"CC(C)(C)CN1CCC2(CC1)CN(c1ccccc1NC(=O)Nc1nc3ccc(F)cc3s1)c1c(O)ccc(Cl)c12 [Example 39, 1-(2-(4-Chloro-7-hydroxy-1′-neopentylspiro[indoline-3,4′-piperidine]-1-yl)phenyl)-3-(6-fluorobenzo[d]thiazol-2-yl)urea]",3.8,0.2
"Cc1ccc2nc(NC(=O)Nc3ccccc3N3CC4(CCN(CC(C)(C)C)CC4)c4c(Cl)ccc(O)c43)sc2c1 [Example 40, 1-(2-(4-Chloro-7-hydroxy-1′-neopentylspiro[indoline-3,4′-piperidine]-1-yl)phenyl)-3-(6-methylbenzo[d]thiazol-2-yl)urea]",5.6,0.5
"COC(=O)c1ccc2nc(NC(=O)Nc3ccccc3N3CC4(CCN(CC(C)(C)C)CC4)c4c(Cl)ccc(O)c43)sc2c1 [Example 41, Methyl 2-(3-(2-(4-Chloro-7-hydroxy-1′-neopentylspiro[indoline-3,4′-piperidine]-1-yl)phenyl)ureido)benzo [d]thiazole-6-carboxylate]",7.2,0.7
"CCSc1nsc(NC(=O)Nc2ccccc2N2CC3(CCN(CC(C)(C)C)CC3)c3c(Cl)ccc(O)c32)n1 [Example 44, 1-(2-(4-Chloro-7-hydroxy-1′-neopentylspiro[indoline-3,4′-piperidine]-1-yl)phenyl)-3-(3-(ethylthio)-1,2,4-thiadiazol-5-yl)urea]",7.3,0.1
"CC(C)(C)CN1CCC2(CC1)CN(c1ccccc1NC(=O)Nc1nc3c(s1)CCCC3)c1c(O)ccc(Cl)c12 [Example 45, 1-(2-(4-Chloro-7-hydroxy-1′-neopentylspiro[indoline-3,4′-piperidine]-1-yl)phenyl)-3-(4,5,6,7-tetrahydrobenzo[d]thiazol-2-yl)urea, TFA]",9.5,0.3
"CC(C)(C)CN1CCC2(CC1)CN(c1ccccc1NC(=O)Nc1nc3c(s1)CCC3)c1c(O)ccc(Cl)c12 [Example 46, 1-(2-(4-Chloro-7-hydroxy-1′-neopentylspiro[indoline-3,4′-piperidine]-1-yl)phenyl)-3-(5,6-dihydro-4H-cyclopenta[d]thiazol-2-yl)urea, TFA]",6.2,0.3
"COc1ccc2nc(NC(=O)Nc3ccccc3N3CC4(CCN(CC(C)(C)C)CC4)c4c(Cl)ccc(O)c43)sc2c1 [Example 47, 1-(2-(4-Chloro-7-hydroxy-1′-neopentylspiro[indoline-3,4′-piperidine]-1-yl)phenyl)-3-(6-methoxybenzo[d]thiazol-2-yl)urea, TFA]",9.4,0.3
"CC(C)(C)CN1CCC2(CC1)CN(c1ccccc1NC(=O)Nc1nc3c(s1)COCC3)c1c(O)ccc(Cl)c12 [Example 48, 1-(2-(4-Chloro-7-hydroxy-1′-neopentylspiro[indoline-3,4′-piperidine]-1-yl)phenyl)-3-(6,7-dihydro-4H-pyrano[4,3-d]thiazol-2-yl)urea, TFA]",8,0.4
"CC(C)(C)CN1CCC2(CC1)CN(c1ccccc1NC(=O)Nc1nc3c(s1)CSCC3)c1c(O)ccc(Cl)c12 [Example 49, 1-(2-(4-Chloro-7-hydroxy-1′-neopentylspiro[indoline-3,4′-piperidine]-1-yl)phenyl)-3-(6,7-dihydro-4H-thiopyrano[4,3-d]thiazol-2-yl)urea, TFA]",6.5,0.3
"COc1nsc(NC(=O)Nc2ccccc2N2CC3(CCN(CC(C)(C)C)CC3)c3c(Cl)ccc(O)c32)n1 [Example 50, 1-(2-(4-Chloro-7-hydroxy-1′-neopentylspiro[indoline-3,4′-piperidine]-1-yl)phenyl)-3-(3-methoxy-1,2,4-thiadiazol-5-yl)urea, TFA]",6.8,0.3
"CC(C)(C)CN1CCC2(CC1)CN(c1ccccc1NC(=O)Nc1nc3ccc([N+](=O)[O-])cc3s1)c1c(O)ccc(Cl)c12 [Example 51, 1-(2-(4-Chloro-7-hydroxy-1′-neopentylspiro[indoline-3,4′-piperidine]-1-yl)phenyl)-3-(6-nitrobenzo[d]thiazol-2-yl)urea, TFA]",10.8,0.5
"CC(C)(C)CN1CCC2(CC1)CN(c1ccccc1NC(=O)Nc1nc3ccc(OC(F)(F)F)cc3s1)c1c(O)ccc(Cl)c12 [Example 52, 1-(2-(4-Chloro-7-hydroxy-1′-neopentylspiro[indoline-3,4′-piperidine]-1-yl)phenyl)-3-(6-(trifluoromethoxy)benzo[d]thiazol-2-yl)urea, TFA]",9.2,0.3
"CC(C)(C)CN1CCC2(CC1)CN(c1ccccc1NC(=O)Nc1nc3ccccc3s1)c1c(O)ccc(Cl)c12 [Example 53, 1-(Benzo[d]thiazol-2-yl)-3-(2-(4-chloro-7-hydroxy-1′-neopentylspiro[indoline-3,4′-piperidine]-1-yl)phenyl)urea, TFA]",7.5,0.5
"CC(C)(C)CN1CCC2(CC1)CN(c1ccccc1NC(=O)Nc1ccc(F)cc1F)c1c(O)ccc(Cl)c12 [Example 54, 1-(2-(4-Chloro-7-hydroxy-1′-neopentylspiro[indoline-3,4′-piperidine]-1-yl)phenyl)-3-(2,4-difluorophenyl)urea]",9.6,1.1
"CC(C)(C)CN1CCC2(CC1)CN(c1ccccc1NC(=O)Nc1ccc(C(C)(C)C)cc1)c1c(O)ccc(Cl)c12 [Example 55, 1-(4-tert-Butylphenyl)-3-(2-(4-chloro-7-hydroxy-1′-neopentylspiro[indoline-3,4′-piperidine]-1-yl)phenyl)urea]",9.7,1
"Cc1ccc(NC(=O)Nc2ccccc2N2CC3(CCN(CC(C)(C)C)CC3)c3c(Cl)ccc(O)c32)cc1F [Example 56, 1-(2-(4-Chloro-7-hydroxy-1′-neopentylspiro[indoline-3,4′-piperidine]-1-yl)phenyl)-3-(3-fluoro-4-methylphenyl)urea]",6.4,0.5
"CC(C)CN1CCCC1c1ccc(NC(=O)Nc2ccccc2N2CC3(CCN(CC(C)(C)C)CC3)c3c(Cl)ccc(O)c32)cc1 (stereo not shown) [Example 57, 1-(2-(4-Chloro-7-hydroxy-1′-neopentylspiro[indoline-3,4′-piperidine]-1-yl)phenyl)-3-(4-(1-isobutylpyrrolidin-2-yl)phenyl)urea]",10.4,0.2
